Source: patent US20040229241A1, “Cloned mammalian polyamine oxidase” (priority 2001, published 2004)

Experiments:
[1] = target: T1, purified recombinant human PAOh1/SMO (Homo sapiens, UniProt Q9NWM0); assay: Oxidase activity of purified recombinant PAOh1/SMO, luminol chemiluminescence; assay type: biochemical; details: 250 μM of compound
T1 construct: A 1702 bp fragment of the PAOh1cDNA was produced by PCR; His tag (pET15b) (N); made in house; host or cells: Escherichia coli BL21(DE3)
Method: Expression and Purification of PAOh1/SMO. The pET15b/PAOh1/SMO plasmid was used to transform the BL21(DE3) strain of Escherichia coli (Novagen) and transformed cells were selected on LB agar with 50 μg/ml ampicillin. The expression of PAOh1/SMO protein was induced in LB medium by the addition of 1 mM IPTG for 3 h at 37 ° C. Cell lysates were prepared under denaturing conditions with 8M urea and PAOh1/SMO protein was purified from the lysate by Ni-NTA resin according to the manufacturer's protocol (Qiagen, Valencia, Calif.). The resulting denatured protein was renatured in buffers containing decreasing concentrations of urea (5M urea, 4 h; 2.5M urea, 4 h; 1M urea, 12 h; and 0M urea, 12 h) and 50 mM Tris-HCl, pH 7.5, 250 mM NaCl, 0.1 mM EDTA, 1 mM DTT, and 0.2 μM flavin adenine dinucleotide (FAD).
Determination of PAO enzyme activity. PAO activity of the purified PAOh1/SMO was assayed using a modi.cation of the chemiluminesence analysis reported by Fernandez et al. and Rogers, et al.. Briefly, luminol-dependent chemiluminescence was determined using a Monolight 3010 luminometer with two reagent injectors. Luminol was prepared as a 100 mM stock solution in DMSO and diluted to 100 μM with H2O, immediately prior to use. Purified PAOh1/SMO was assayed in a 100 mM glycine buffer, pH 8.0, 5 ηmol luminol, 20 μg horseradish peroxidase, and the polyamine substrate as indicated. All reagents with the exception of the polyamine substrate were combined and incubated for 2 min at 37 ° C., then the tube was transferred to the luminometer, substrate was added, and the resulting chemiluminescence was integrated over 20 s. The integral values are calibrated against standards containing known concentrations of H2O2 and the activities are expressed as pmols H2O2/mg protein/min. Where indicated, inhibitors were added at the specified concentrations prior to the addition of substrate. Km and Vmax values for the purified enzyme with the indicated substrate were estimated using Lineweaver-Burk transformation of the Michaelis-Menten kinetic equation.

[2] = system: PAOh1/SMO; assay: PAOh1/SMO activity in lysates of NCI A549 cells after analogue treatment; assay type: cell-based, human
Method: (§1) Cell Culture and Analysis of Growth Inhibition of Human Lung Cancer Cell Lines The non-small-cell cancer lines NCI A549 (adenocarcinoma), NCI H157 (squamous), NCI H727 (carcinoid), NCI H125 (adenocarcinoma) and U1752 (squamous), and the small-cell lung carcinoma lines NCI H82 and NCI H889 were cultured as we have previously described. Cells were treated for the times and with the concentrations of specific agents as indicated in the Results. For cell growth analysis in the presence of the PAOh1/SMO inhibitor MDL 72,527, the MTS dye reduction assay CellTiter 96 system from Promega was used according to the supplier's protocol. In these experiments, NCI A549 cells were seeded at 5×10^3 cells/well in a 96-well microtiter plate and treated for 96 h with 10 μM of the indicated analogue in the presence or absence of 250 μM MDL 72,527.
(§2) Total cellular RNA was extracted from the lung cancer cell lines using Trizol reagent (Invitrogen) according to the manufacturer's protocol. For Northern blotting, total RNA (20 lg) was separated on a denaturing 1.5% agarose gel containing 6% formaldehyde and transferred to Zetaprobe membrane (Bio-Rad). Random primer- labeled PAOh1 cDNA was used as probe to estimate PAOh1/SMO expression. Blots were stripped and reprobed with an 18S ribosomal cDNA to provide a loading control. Analysis of polyamine content, SSAT and PAOh1/SMO activity. Intracellular polyamine concentrations were determined using the precolumn dansylation labeling, reverse-phase high-pressure liquid chromatography method as described by Kabra et al. using 1,7-diaminoheptane as an internal standard. Polyamine concentrations are reported as nanomoles per milligram protein for each sample, where lysate protein content was measured by the method of Bradford. SSAT activity of cellular extracts was measured as previously described. […] The PAOh1/SMO assays were performed in the presence of 1.0 mM pargyline and 0.1 mM semicarbizide as inhibitors of monoamine oxidase (MAO) and diamine oxidase (DAO), respectively.

[3] = system: NCI A549 cells; assay: Intracellular polyamine and analogue content of NCI A549 cells (HPLC); assay type: cell-based, human; details: NCI A549, 10 μM, 24 h
Excerpt: as §2

[4] = system: PAO message; assay: Northern blot of PAO mRNA in NCI H157 cells after analogue treatment; assay type: cell-based, human; details: 10 μM, 24 h
Method: RNA Purification and Northern Blot Assay. Total cellular RNA from the NCI H157 cell line was extracted using Trizol total RNA reagent according to the protocol from the manufacturer. Total RNA (20 μg) was separated on a denaturing 1.5% agarose gel containing 6% formaldehyde, transferred to Zetaprobe membrane (Bio-Rad), and hybridized with a random primer-labeled pPAOh1 cDNA as the probe. Blots were washed and reprobed with an 18S ribosomal cDNA probe as a loading control.

[5] = system: PAO; assay: PAO activity in homogenates of NCI H157 cells after analogue treatment; assay type: cell-based, human; details: 10 μM, 24 h
Method: Determination of PAO Enzyme Activity. The cultured H157 cells with or without treatment of 10 μM N^1, N″-bis(ethyl)norspermine (BENSpm) were homogenized with a Dounce tissue homogenizer in ice-cold 0.083 M sodium borate buffer (pH 9.0). The PAO activity in homogenates was assayed by the method of Suzuki et al. […] The enzyme activity was stopped by the addition of 2.0 ml of 0.1 M NaOH solution. The fluorescence intensity was measured with excitation at 323 nm and emission at 426 nm. […] Protein content of the cellular homogenate was determined using the Bio-Rad protein assay kit (Bio-Rad). […] For determination of PAO activity in the product of the unlabeled TnT reaction, 10 μl of TnT reaction were used in the place of the homogenate. The PAO activity in the TnT reactions was represented by the fluorescent compound formed within the 1-h incubation. […] The concentrations chosen for each inhibitor were based on studies published previously (12).

[6] = system: SSAT; assay: SSAT activity of NCI A549 cellular extracts; assay type: cell-based, human; details: NCI A549, 10 μM, 24 h; untreated 5 ± 0.1
Excerpt: as §2

[7] = system: PAOh1/SMO; assay: PAOh1/SMO activity and mRNA in small-cell lung cancer lines NCI H82 and NCI H889 after BENSpm; assay type: cell-based, human; details: two small-cell lung cancer lines, 10 μM, 24 h
Method: as §1, with “In these experiments, NCI A549 cells were seeded at 5×10^3 cells/well in a 96-well microtiter plate and treated for 96 h with 10 μM of the indicated analogue in the presence or absence of 250 μM MDL 72,527.” left out
Total cellular RNA was extracted from the lung cancer cell lines using Trizol reagent (Invitrogen) according to the manufacturer's protocol. […] Intracellular polyamine concentrations were determined using the precolumn dansylation labeling, reverse-phase high-pressure liquid chromatography method as described by Kabra et al. using 1,7-diaminoheptane as an internal standard. Polyamine concentrations are reported as nanomoles per milligram protein for each sample, where lysate protein content was measured by the method of Bradford. SSAT activity of cellular extracts was measured as previously described. […]

[8] = system: NCI A549 cells; assay: MTS cell growth analysis of NCI A549 cells with or without MDL 72,527; assay type: cell-based, human; details: NCI A549, 96 h, 10 μM analogue with 250 μM MDL 72,527
Method: as §1

T1 sequence (Q9NWM0 whole entry, the tested form may be a part): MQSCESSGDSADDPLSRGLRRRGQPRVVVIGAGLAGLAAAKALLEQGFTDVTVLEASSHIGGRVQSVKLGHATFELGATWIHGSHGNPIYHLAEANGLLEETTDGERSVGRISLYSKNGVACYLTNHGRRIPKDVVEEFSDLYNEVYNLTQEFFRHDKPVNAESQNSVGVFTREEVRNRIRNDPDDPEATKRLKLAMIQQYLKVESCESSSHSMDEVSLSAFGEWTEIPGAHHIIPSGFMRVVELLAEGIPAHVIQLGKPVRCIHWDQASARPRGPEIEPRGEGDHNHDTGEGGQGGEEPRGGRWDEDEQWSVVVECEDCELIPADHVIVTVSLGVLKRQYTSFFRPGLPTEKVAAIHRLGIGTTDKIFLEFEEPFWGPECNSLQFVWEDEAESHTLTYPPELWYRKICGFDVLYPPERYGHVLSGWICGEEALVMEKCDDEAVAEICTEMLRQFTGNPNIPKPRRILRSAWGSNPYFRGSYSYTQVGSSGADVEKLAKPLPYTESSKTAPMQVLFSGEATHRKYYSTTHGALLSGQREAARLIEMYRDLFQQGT

## CCNCCCNCCCNCCCNCC [BENSpm, N^1,N^11-bis(ethyl)norspermine]
[1]
  ability to serve as substrate (oxidation by purified PAOh1/SMO): none of the analogues examined were found to be oxidized
[2]; NCI A549, 10 μM, 12 h
  fold increase of PAOh1/SMO activity: approximately threefold
[2]; NCI A549, 10 μM, 24 h, 250 μM spermine as substrate
  fold induction of PAOh1/SMO activity: about fivefold
[2]; NCI A549, 10 μM, 24 h, untreated 6,390 ± 2,070
  PAOh1/SMO activity: 16,100 ± 780 pmol H2O2/mg/h
[2]; NCI A549, 24 h exposure to 10 μM of each analogue
  induction of PAOh1/SMO activity: significant induction
[2]; NCI A549, increasing concentrations, 24 h
  concentration of maximal induction of PAOh1/SMO: 5 µM
[3]; untreated 2.1 ± 0.7
  Polyamine: Putrescine: <0.05 nmol/mg protein
[3]; untreated 9.9 ± 1.2
  Polyamine: Spermine: 1.2 ± 0.3 nmol/mg protein
[3]; untreated 26.9 ± 1.2
  Polyamine: Spermidine: 1.2 ± 0.8 nmol/mg protein
[4]
  increase in PAO message: ~5 fold
[5]
  increase in PAO activity: > 3 fold
[6]
  SSAT activity: 5590 ± 517.7 pmol N^1-acetylspermidine/mg p
[7]
  increase in PAOh1/SMO activity: no observed increase
  increase in PAOh1/SMO mRNA: no observed increase
[8]
  sensitivity of cell growth to analogue in the presence of the PAOh1/SMO inhibitor: clear decrease in sensitivity
